The results in this text go back to PubChem BioAssay (NCI).

“And” between values parts separate entries of the source, which are not always exact repeats. Equal values may be shown once.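 Values below derive from 48-hour exposures of cells grown in 96-well plates, with endpoints linearly interpolated between the two concentrations bracketing the appropriate inhibition level. GI50 is the concentration that inhibits growth by half. TGI marks complete inhibition of growth.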

Among the test systems are K-562 leukemia; OVCAR-8 ovarian; SK-MEL-28 melanoma; UO-31 renal; UACC-257 melanoma; OVCAR-3 ovarian; NCI-H23 lung; SF-268 CNS; SN12C renal; U251 CNS; CCRF-CEM leukemia; OVCAR-5 ovarian.
What all share (assay): NCI tumour cell line growth inhibition, 48 h

`Cc1ccc(S(=O)(=O)NCCSCCNS(=O)(=O)c2ccc(C)cc2)cc1`: the TGI in the assay on K-562 leukemia, in the assay on OVCAR-8 ovarian, with SK-MEL-28 melanoma, with UO-31 renal, in the assay with UACC-257 melanoma and in the assay on OVCAR-3 ovarian was above 100 µM throughout. Besides, the TGI in the assay on NCI-H23 lung, in the assay with SF-268 CNS, in the assay with SN12C renal, with U251 CNS and in the assay with CCRF-CEM leukemia was above 100 µM throughout.
Turning to `Cc1ccc(Oc2ccc(C)cc2[N+](=O)[O-])cc1`, the TGI in the assay on K-562 leukemia, in the assay on OVCAR-8 ovarian, in the assay with SK-MEL-28 melanoma, in the assay on OVCAR-5 ovarian, with UO-31 renal and in the assay on UACC-257 melanoma was above 100 µM in each case. Besides, the TGI with OVCAR-3 ovarian, in the assay on NCI-H23 lung, in the assay on SF-268 CNS, in the assay on SN12C renal, in the assay with U251 CNS and with CCRF-CEM leukemia was above 100 µM throughout.
`O=S(=O)(Sc1ccc(Cl)cc1)c1ccc(Cl)cc1`: the TGI in the assay with K-562 leukemia came out at 93.7 µM; with OVCAR-8 ovarian it was 30.2 µM; with SK-MEL-28 melanoma it was 31.1 µM; in the assay on OVCAR-5 ovarian, 37.9 µM; in the assay on UO-31 renal it was 23.9 µM; with UACC-257 melanoma it was 36.3 µM. Also, the TGI with OVCAR-3 ovarian was found to be 30.2 µM; in the assay with NCI-H23 lung, 30.5 µM; with SF-268 CNS, 21.3 µM; in the assay on SN12C renal it was 25.4 µM; in the assay with U251 CNS, 22.3 µM; with CCRF-CEM leukemia, 18.5 µM.
Regarding `CCOC(=O)/C(Cl)=C(\C)Nc1nc2c(ccc3ccccc32)s1`, the TGI with K-562 leukemia, in the assay with OVCAR-8 ovarian, in the assay on SK-MEL-28 melanoma, with OVCAR-5 ovarian, in the assay on UO-31 renal and in the assay with UACC-257 melanoma was above 100 µM throughout. Further, the TGI in the assay with OVCAR-3 ovarian, with NCI-H23 lung, in the assay with SF-268 CNS, with SN12C renal, in the assay with U251 CNS and in the assay on CCRF-CEM leukemia was above 100 µM throughout.
With `Cc1cc(NCc2cc(Nc3ccnc4cc(Cl)ccc34)ccc2F)nc(N2CCCC2)n1`, the GI50 in the assay with UO-31 renal was 1.27 µM; in the assay with UACC-257 melanoma it was 1.87 µM; in the assay with OVCAR-3 ovarian it was 1.63 µM; in the assay on NCI-H23 lung, 1.83 µM; in the assay with U251 CNS, 1.73 µM; in the assay with CCRF-CEM leukemia it was 0.353 µM. In addition, the TGI with UO-31 renal is 2.86 µM; in the assay with UACC-257 melanoma, 3.53 µM; in the assay with OVCAR-3 ovarian it was 3.22 µM; in the assay on NCI-H23 lung, 4.68 µM; in the assay on U251 CNS, 3.32 µM; in the assay with CCRF-CEM leukemia, above 100 µM.
Consider `O=c1ccc2cc(O)c(O)cc2o1`, for which the TGI in the assay with K-562 leukemia, in the assay on OVCAR-8 ovarian, in the assay with SK-MEL-28 melanoma, in the assay on OVCAR-5 ovarian, with UO-31 renal and in the assay with UACC-257 melanoma was above 100 µM each time. Moreover, the TGI in the assay on OVCAR-3 ovarian, in the assay on NCI-H23 lung, in the assay with SF-268 CNS, in the assay with SN12C renal, in the assay with U251 CNS and in the assay with CCRF-CEM leukemia was above 100 µM in each case.
Consider `COc1ccc(N2C(=O)C3c4[nH]c5c(C)cccc5c4C4CCC(C(C)(C)C)CC4C3C2=O)cc1` (stereo not drawn), for which the TGI in the assay on K-562 leukemia, in the assay with OVCAR-8 ovarian, in the assay on SK-MEL-28 melanoma, in the assay with OVCAR-5 ovarian, in the assay on UO-31 renal and in the assay on OVCAR-3 ovarian was above 10 µM in each case. Further, the TGI in the assay with NCI-H23 lung, in the assay with SF-268 CNS, with SN12C renal, with U251 CNS and in the assay on CCRF-CEM leukemia was above 10 µM each time.
In the case of `CN(C)CCNc1nc(-c2ccc3ccccc3c2)nc2nc[nH]c12`, the TGI in the assay with K-562 leukemia is above 100 µM; in the assay on OVCAR-8 ovarian, 24.4 µM; with SK-MEL-28 melanoma, 28.9 µM; in the assay with OVCAR-5 ovarian, 26 µM; with UO-31 renal, 12.9 µM; in the assay on UACC-257 melanoma, 19.5 µM. Further, the TGI with OVCAR-3 ovarian came out at 21 µM; in the assay on NCI-H23 lung, 23.9 µM; in the assay on SF-268 CNS, 25.1 µM; in the assay with SN12C renal, 26.3 µM; with U251 CNS, 31 µM; in the assay with CCRF-CEM leukemia, 52.9 µM.
As for `CC(=O)C(O)N1C(=O)C=CC1=O` (stereo not drawn), the GI50 is 10500 µM in the assay with OVCAR-5 ovarian; 2260 µM with UO-31 renal; 11600 µM with OVCAR-3 ovarian; > 25 µM and 2.74 µM in the assay on CCRF-CEM leukemia. In the assay on SF-268 CNS, the TGI was 17.9 µM and 51.8 µM.
In the case of `CC12CCC(C(=O)OC1=O)C(C)(C)O2` (stereo not drawn), the TGI in the assay with K-562 leukemia, with OVCAR-8 ovarian, with SK-MEL-28 melanoma, in the assay on OVCAR-5 ovarian, in the assay with UO-31 renal and with UACC-257 melanoma was above 100 µM in each case. Further, the TGI in the assay with OVCAR-3 ovarian, with NCI-H23 lung, in the assay on SF-268 CNS, in the assay on SN12C renal, with U251 CNS and in the assay with CCRF-CEM leukemia was above 100 µM each time.
In the case of `NC(=O)NN=C(CS)CS`, the TGI was above 100 µM in the assay with K-562 leukemia; 77.3 µM in the assay on OVCAR-8 ovarian; 80.8 µM in the assay on SK-MEL-28 melanoma; 55.7 µM in the assay on OVCAR-5 ovarian; 54.4 µM with UO-31 renal; above 70.6 µM in the assay on UACC-257 melanoma. For the same compound, the TGI is 51.3 µM with OVCAR-3 ovarian; 52.4 µM in the assay with NCI-H23 lung; above 79.9 µM in the assay on SF-268 CNS; 55 µM with SN12C renal; 43.6 µM with U251 CNS; above 100 µM with CCRF-CEM leukemia.
Turning to `CN(C)c1ccc(/C=N\NC(=O)CSCC(=O)N/N=C/c2ccc(N(C)C)cc2)cc1`, the TGI in the assay with K-562 leukemia, in the assay with OVCAR-8 ovarian, with SK-MEL-28 melanoma, in the assay with OVCAR-5 ovarian, in the assay with UO-31 renal and in the assay on UACC-257 melanoma was above 100 µM throughout. The TGI in the assay with OVCAR-3 ovarian, with NCI-H23 lung, in the assay with SF-268 CNS, in the assay with SN12C renal, in the assay on U251 CNS and in the assay with CCRF-CEM leukemia was above 100 µM each time.
Take `COc1ccc([C@@H]2ON(C)[C@H]3CN(C)C(=O)[C@@H]23)cc1`: the TGI in the assay with K-562 leukemia, in the assay on OVCAR-8 ovarian, in the assay on SK-MEL-28 melanoma, in the assay on OVCAR-5 ovarian, in the assay on UO-31 renal and with UACC-257 melanoma was above 100 µM throughout. Further, the TGI in the assay with OVCAR-3 ovarian, in the assay with NCI-H23 lung, with SN12C renal, with U251 CNS and in the assay on CCRF-CEM leukemia was above 100 µM each time.
As for `CCCCCCCSc1nc2c(C(=O)OCC)ncn2c2ccccc12`, the TGI with K-562 leukemia, in the assay with OVCAR-8 ovarian, in the assay on SK-MEL-28 melanoma, in the assay with OVCAR-5 ovarian, with UO-31 renal and in the assay with UACC-257 melanoma was above 100 µM throughout. Moreover, the TGI in the assay on OVCAR-3 ovarian, with NCI-H23 lung, with SF-268 CNS, in the assay with SN12C renal, with U251 CNS and with CCRF-CEM leukemia was above 100 µM in each case.
